According to patent publication US20160089439A1, “Prevention of Illicit Manufacutre of Methamphetamine from Pseudoephedrine Using Food Flavor Excipients” (Satara Pharmaceuticals, LLC, priority 2014, published 2016):

What was measured:
[1] = Reaction of excipient and pseudoephedrine with lithium in liquid ammonia, methamphetamine quantified; settings: for Relative percentage of methamphetamine formation, Li—NH3 Reduction: excipient 1.0 mmol + pseudoephedrine 1.0 mmol, pseudoephedrine only = 100
[2] = Reaction of excipient and pseudoephedrine with red phosphorous and hydriodic acid, methamphetamine quantified; settings: excipient 1.0 mmol + pseudoephedrine 1.0 mmol, 57% aqueous hydriodic acid, 90-100° C.; pseudoephedrine only = 100
[3] = species and route not given; cited from earlier work

Cc1cnc(C)c(C)n1 [2,3,5-Trimethylpyrazine]
Relative percentage of methamphetamine formation, Li—NH3 Reduction [1]: 8% | Relative percentage of methamphetamine formation, P—HI Reduction [2]: 20%

CC(=O)c1nccs1 [2-Acetylthiazole]
Relative percentage of methamphetamine formation, Li—NH3 Reduction [1]: <1%

CCOc1cnc(C)cn1 [2-Ethoxy-5-methylpyrazine]
Relative percentage of methamphetamine formation, Li—NH3 Reduction [1]: 7% | Relative percentage of methamphetamine formation, P—HI Reduction [2]: 15%

CCOc1cncc(C)n1 [2-Ethoxy-6-methylpyrazine]
Relative percentage of methamphetamine formation, Li—NH3 Reduction [1]: 4% | Relative percentage of methamphetamine formation, P—HI Reduction [2]: 13%

COc1nccnc1CC(C)C [2-Isobutyl-3-methoxypyrazine]
Relative percentage of methamphetamine formation, Li—NH3 Reduction [1]: 2% | Relative percentage of methamphetamine formation, P—HI Reduction [2]: 27%

COc1nccnc1C [2-Methoxy-3-methylpyrazine]
Relative percentage of methamphetamine formation, Li—NH3 Reduction [1]: <1% | Relative percentage of methamphetamine formation, P—HI Reduction [2]: 2.0%

CC(=O)c1cnccn1 [Acetylpyrazine]
LD50 [3]: > 4000 mg/kg | Relative percentage of methamphetamine formation, Li—NH3 Reduction [1]: <<1% | Inhibiting the conversion of pseudoephedrine to methamphetamine (in words) ([1]; summary of Table 1, both Li—NH3 and P—HI reductions): most effective among all of the pyrazine derivatives tested | Relative percentage of methamphetamine formation, P—HI Reduction [2]: 6%

CC(C)COC(=O)c1ccccc1N [Isobutyl anthranilate]
Relative percentage of methamphetamine formation, Li—NH3 Reduction [1]: <1% | Relative percentage of methamphetamine formation, P—HI Reduction [2]: 2.3%
